In patent US20240277658A1, “NLRP3 ACTIVATORS FOR USE IN THE TREATMENT OF INFECTIOUS DISEASES OR CANCER BY ACTIVATING NLRP3 INFLAMMASOME” (ALBERT-LUDWIGS-UNIVERSITÄT FREIBURG, priority 2020, published 2024):
“And” between values parts separate entries of the source, which are not always exact repeats. Equal entries are not always repeated. Where two headings read alike, the source gives them in different places.

How the values were obtained:
NLRP3 inflammasome = target: T1, NLRP3 inflammasome (Mus musculus, UniProt Q8R4B8); assay: IL-1β release from LPS-primed BMDCs (ELISA) as readout of NLRP3 inflammasome activation; assay type: cell-based
T1 construct: endogenous in cells; host or cells: primary mouse bone marrow-derived dendritic cells (BMDCs), LPS-primed
Experimental: (§1) This was tested in cell culture in several different in vitro assays classically used to investigate inflammasome activation. These include measuring inflammasome-dependent lytic cell death (pyroptosis) by detecting release of the cytosolic enzyme lactate dehydrogenase (LDH) using a commercial colorimetric assay and release of proinflammatory cytokines like IL-1β by enzyme-linked immunosorbent assay (ELISA), analyzing cleavage and activation of caspase-1 and IL-1β by immunoblotting and immunofluorescence imaging of ASC speck formation. Lytic cell death was determined via LDH release. Assay results for compounds are illustrated in the Tables below, wherein the concentration of the compounds tested had been 50 μM or as indicated in the table, and the concentration of the known activators has been tested with 5 μM of nigericin, 100 μM of each R837 and CL097. For classification of the activity of a given molecule, release of IL-1β was quantified as % of IL-1% of a respective control activator used for the experiment (highlighted in tables with bold letters). The compounds listes in Table 1 were classified into 4 groups depending on their ability to induce the NLRP3 inflammasome activation, assessed by % IL-1β release as compared to the positive control.
(§2) Mouse bone marrow-derived dendritic cells (BMDCs) were isolated from femurs and tibias previously described (Gross, Olaf, 2012, “Measuring the inflammasome”, Methods in molecular biology, Clifton, N.J., 844, pp. 199-222.). In brief, tibias and femurs were carefully removed and put to sterile 70% ethanol for 1 minute. Using a 22-G needle attached to a 20 ml-syringe filled with sterile flushing medium, the bone marrow was pressed through the mesh of a […] cell strainer. The cells were spun down by centrifugation at 400×g, 4° C. for 5 minutes and red blood cells lysed by resuspension and incubation for 5 minutes at room temperature in RBC lysis buffer. 9 ml of flushing medium were added and cells were again spun down by centrifugation at 400×g, 4° C. for 5 minutes. Cells were then resuspended in BMDC medium (RPMI, 10% fetal bovine serum, 1% penicillin-streptomycin100 U/ml, 20 ng/ml recombinant murine GM-CSF), counted and plated at a density of 0.5×10^6 cells ml^−1 in 10 ml medium and incubated at 37° C., 5% CO2 in a humidified incubator. After 2 days, 10 ml of fresh medium were added to the cells and after 4 days, the medium was fully exchanged to 20 ml of fresh medium. The cells were allowed to differentiate for 6 to 8 days before usage.
(§3) For canonical inflammasome activation BMDCs after 7-9 days of differentiation were harvested and counted with a Neubauer Chamber (Hecht Assistant) and the concentration was set to 1 Mio cells ml^−1. 100 μl cell suspension per well were seeded in 96-well plates. The cells were primed with 50 ng ml^−1 E. coli K12 ultra-pure LPS for 3 hours and subsequently treated with canonical inflammasome activators or experimental compounds for 3 hours if not indicated differently (incubation time FIG. 4D, 5, 7, 8, 11, 13-18: 3 h, FIG. 12: 4 h). Concentrations of the stimuli were as follows if not indicated differently: 5 μM nigericin, 100 μM imiquimod (also known as R837), 100 μM CL097, 100 μM R848, […] poly(dA:dT), 300 μg ml^−1 MSU. If an inhibitor was used before stimuli treatment, the inhibitor was added after 2.5 hours of priming and it was incubated for 30 minutes before inflammasome activation. Inhibitors were used as follows: 3 μM MCC950, 45 mM KCl, 30 μM ebselen (2-Phenyl-1,2-benzoselenazol-3-one), 5 μM cytochalasin D (see FIGS. 8, 11, 12 and 17).
(§4) All inflammasome stimulations were performed in three technical replicates for each condition. […]

BMDCs = assay: LDH release (lytic cell death, pyroptosis) from LPS-primed BMDCs; assay type: cell-based, mouse; details: for Average (% positive control): LDH release; for cytotoxicity at 50 µM / cytotoxicity at 25 µM / cytotoxicity at 75 µM: Mus musculus, BMDC
Experimental: as §1, §2, §3, §4

[1] = IL-1β release, compound 50 μM, positive control nigericin 5 μM
[2] = compound 50 μM, LPS-primed BMDCs
[3] = single replicates, compound 50 μM, LPS-primed BMDCs
[4] = compound 50 μM, positive control nigericin 5 μM
[5] = compound 50 μM, LPS-primed BMDCs, read-out: Average LDH release (% of max.)
[6] = single replicates, compound 50 μM, LPS-primed BMDCs, read-out: LDH release (% of max.)

T1 sequence (Q8R4B8 whole entry): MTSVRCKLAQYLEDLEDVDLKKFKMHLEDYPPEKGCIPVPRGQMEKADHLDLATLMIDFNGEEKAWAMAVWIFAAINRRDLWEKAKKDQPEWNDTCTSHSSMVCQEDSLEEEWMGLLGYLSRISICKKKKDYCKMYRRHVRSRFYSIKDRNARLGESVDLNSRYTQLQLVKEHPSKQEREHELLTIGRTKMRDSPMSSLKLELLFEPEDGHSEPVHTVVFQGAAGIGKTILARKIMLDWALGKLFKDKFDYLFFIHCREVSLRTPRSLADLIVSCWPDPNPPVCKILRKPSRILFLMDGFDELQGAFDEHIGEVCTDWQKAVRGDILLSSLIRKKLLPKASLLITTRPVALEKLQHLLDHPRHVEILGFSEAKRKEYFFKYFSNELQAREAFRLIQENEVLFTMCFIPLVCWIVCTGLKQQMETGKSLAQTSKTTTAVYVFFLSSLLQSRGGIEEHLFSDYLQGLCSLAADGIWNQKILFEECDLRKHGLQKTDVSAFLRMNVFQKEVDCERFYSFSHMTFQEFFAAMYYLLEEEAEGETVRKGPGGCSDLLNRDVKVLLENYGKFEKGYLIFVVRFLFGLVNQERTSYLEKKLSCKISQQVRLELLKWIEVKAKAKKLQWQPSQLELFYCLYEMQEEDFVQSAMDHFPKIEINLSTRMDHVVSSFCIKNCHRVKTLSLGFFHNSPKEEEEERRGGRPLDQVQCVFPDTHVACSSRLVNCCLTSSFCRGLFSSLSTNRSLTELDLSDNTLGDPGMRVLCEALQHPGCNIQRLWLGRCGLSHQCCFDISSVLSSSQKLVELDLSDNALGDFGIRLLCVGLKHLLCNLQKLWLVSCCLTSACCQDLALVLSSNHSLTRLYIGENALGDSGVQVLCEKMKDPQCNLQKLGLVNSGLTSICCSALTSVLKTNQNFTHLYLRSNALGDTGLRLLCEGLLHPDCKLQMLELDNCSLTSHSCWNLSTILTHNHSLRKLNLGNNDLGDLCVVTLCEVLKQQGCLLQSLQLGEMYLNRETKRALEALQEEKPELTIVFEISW

| SMILES | Average (% positive control) (NLRP3 inflammasome; [1]) | Average IL-1β (NLRP3 inflammasome; [2]) | IL-1β (NLRP3 inflammasome; [3]) | Average (% positive control) (BMDCs; [4]) | cytotoxicity at 50 µM (BMDCs; [5]) | cytotoxicity at 50 µM (BMDCs; [6]) | also measured |
| --- | --- | --- | --- | --- | --- | --- | --- |
| CC(C)CC(NC(=O)Nc1cccc(N2CCC(C)CC2)c1)c1nc(-c2nnc[nH]2)no1 (stereo not drawn) [L01.093, 3-{3-methyl-1-[3-(4H-1,2,4-triazol-3-yl)-1,2,4-oxadiazol-5-yl]butyl}-1-[3-(4-methylpiperidin-1-yl)phenyl]urea] | 0.998 % positive control | 0.072 ng/mL | 0.056 ng/mL and 0.050 ng/mL and 0.108 ng/mL | 11.139 % positive control | 8.15% | 6.68% | – |
| CC(C)C(NC(=O)Nc1ccc2c(c1)COC2)c1nc(-c2cccnc2)no1 (stereo not drawn) [L01.114, 3-(1,3-dihydro-2-benzo-furan-5-yl)-1-{2-meth-yl-1-[3-(pyridin-3-yl)-1,2,4-oxadiazol-5-yl]-propyl}urea] | 1.049 % positive control | 0.075 ng/mL | 0.073 ng/mL and 0.081 ng/mL and 0.072 ng/mL | 12.801 % positive control | 9.37% | 9.46% | – |
| O=C(Nc1cc(Cl)cc(Cl)c1)Nc1ccc([N+](=O)[O-])cc1Cl [AH1, 1-(2-chloro-4-nitrophenyl)-3-(3,5-dichlorophenyl) urea] | – | – | – | – | – | – | Average IL-1β (NLRP3 inflammasome; 25 μM, AH series table): 1.177 ng/mL; IL-1β (NLRP3 inflammasome; 25 μM, individual replicate values, AH series table): 1.140 ng/mL and 1.156 ng/mL and 1.234 ng/mL; Average IL-1β (NLRP3 inflammasome; 50 μM, AH series table): 1.578 ng/mL; IL-1β (NLRP3 inflammasome; 50 μM, individual replicate values, AH series table): 1.533 ng/mL and 1.609 ng/mL and 1.592 ng/mL; Average IL-1β (NLRP3 inflammasome; 75 μM, AH series table): 1.533 ng/mL; IL-1β (NLRP3 inflammasome; 75 μM, individual replicate values, AH series table): 1.619 ng/mL and 1.382 ng/mL and 1.598 ng/mL; Average (% positive control) (NLRP3 inflammasome; IL-1β, 25 μM, positive control EN22 10 μM): 11.766 % positive control; Average (% positive control) (NLRP3 inflammasome; IL-1β, 50 μM, positive control EN22 10 μM): 15.776 % positive control; Average (% positive control) (NLRP3 inflammasome; IL-1β, 75 μM, positive control EN22 10 μM): 15.328 % positive control; Average (% positive control) (BMDCs; 25 μM, positive control EN22 10 μM): 53.499 % positive control; Average (% positive control) (BMDCs; 50 μM, positive control EN22 10 μM): 74.390 % positive control; Average (% positive control) (BMDCs; 75 μM, positive control EN22 10 μM): 78.340 % positive control; cytotoxicity at 25 µM (BMDCs; 25 μM, AH series table, read-out: Average LDH release (% of max.)): 41.1%; cytotoxicity at 25 µM (BMDCs; 25 μM, individual replicate values, AH series table, read-out: LDH release (% of max.)): 42.1%; cytotoxicity at 50 µM (BMDCs; 50 μM, AH series table, read-out: Average LDH release (% of max.)): 57.1%; cytotoxicity at 50 µM (BMDCs; 50 μM, individual replicate values, AH series table, read-out: LDH release (% of max.)): 55.7%; cytotoxicity at 75 µM (BMDCs; 75 μM, individual replicate values, read-out: LDH release (% of max.)): 60.7%; cytotoxicity at 75 µM (BMDCs; 75 μM, read-out: Average LDH release (% of max.)): 60.2% |
| CCCCOC(=O)c1ccc(NC(=O)NC(CC(C)C)c2nc(-c3nnc[nH]3)no2)cc1 (stereo not drawn) [L01.135, butyl 4-[{{3-methyl-1-[3-(4H-1,2,4-triazol-3-yl)-1,2,4-oxadiazol-5-yl]-butyl}carbamoyl)amino]-benzoate] | 0.975 % positive control | 0.070 ng/mL | 0.079 ng/mL and 0.073 ng/mL and 0.057 ng/mL | 11.085 % positive control | 8.11% | 8.89% | – |

Now from value to molecule, other results behind:

| Average (% positive control) (NLRP3 inflammasome; [1]) | Average IL-1β (NLRP3 inflammasome; [2]) | SMILES | IL-1β (NLRP3 inflammasome; [3]) | Average (% positive control) (BMDCs; [4]) | cytotoxicity at 50 µM (BMDCs; [5]) | cytotoxicity at 50 µM (BMDCs; [6]) | also measured |
| --- | --- | --- | --- | --- | --- | --- | --- |
| 5.819 % positive control | 0.417 ng/mL | CN1C(=O)c2ccc(NC(=O)Nc3ccccc3)cc2C1=O [L01.128, 3-(2-methyl-1,3-dioxo-2,3-dihydro-1H-iso-indol-5-yl)-1-phenyl-urea] | 0.456 ng/mL and 0.394 ng/mL and 0.402 ng/mL | 16.086 % positive control | 11.8% | 12.1% | – |
| 9.988 % positive control | 0.716 ng/mL | Cc1ccc(NC(=O)Nc2ccccc2)cc1NC(=O)NC1CC1 [L01.028, 3-cyclopropyl-1-{2-methyl-5-[(phenyl-carbamoyl)amino]-phenyl}urea] | 0.686 ng/mL and 0.757 ng/mL and 0.705 ng/mL | 19.825 % positive control | 14.5% | 12.6% | – |
| 1.214 % positive control | 0.087 ng/mL | O=C(Nc1ccccc1)Nc1cccc(NC(=O)NC2CC2)c1 [L01.122, 3-cyclopropyl-1-{3-[(phenylcarbamoyl)-amino]phenyl}urea] | 0.072 ng/mL and 0.093 ng/mL and 0.095 ng/mL | 11.054 % positive control | 8.09% | 9.16% | – |
